Assay results from patent publication US20070129252A1, “2-Halo-6-alkylphenyl-substituted spirocyclic tetramic acid derivatives” (BAYER CROPSCIENCE AKTIENGESELLSCHAFT, priority 2003, published 2007).

Legend:
Format in all cases: in vivo
Myzus persicae [1] = assay: Myzus test (dip treatment); details: cabbage leaves
Procedure: Myzus Test (Dip Treatment)
(§1) To produce a suitable preparation of active compound, 1 part by weight of active compound is mixed with the stated amounts of solvent and emulsifier, and the concentrate is diluted with emulsifier-containing water to the desired concentration.
Cabbage leaves (Brassica oleracea), which are heavily infested by the green peach aphid Myzus persicae), are treated by being dipped into the preparation of active compound of the desired concentration.
(§2) After the desired period of time, the kill in % is determined. 100% means that all aphids have been killed; 0% means that none of the aphids have been killed.

Tetranychus urticae [2] = assay: Tetranychus test (OP-resistant/dip treatment); details: dip treatment
Procedure: Tetranychus Test (OP-Resistant/Dip Treatment)
as §1
Bean plants (Phaseolus vulgaris), which are heavily infested by all stages of the greenhouse red spider mite (Tetranychus urticae), are dipped into a preparation of active compound of the desired concentration.
(§3) After the desired period of time, the activity in % is determined. 100% means that all spider mites have been killed; 0% means that none of the spider mites have been killed.

Aphis gossypii = Aphis gossypii test; details: 500 ppm; dip treatment; cotton leaves
Procedure: as §1
Cotton leaves (Gossypium hirsutum), which are heavily infested by the cotton aphid (Aphis gossypii), are treated by being dipped into the preparation of active compound of the desired concentration.
as §2

Phaedon cochleariae [3] = assay: Phaedon larvae test (dip treatment); details: 500 ppm, cabbage leaves
Procedure: Phaedon Larvae Test (Dip Treatment) [[[…]]] To produce a suitable preparation of active compound, 1 part by weight of active compound is mixed with the stated amounts of solvent and emulsifier, and the concentrate is diluted with emulsifier-containing water to the desired concentration. Cabbage leaves (Brassica oleracea) are treated by being dipped into the preparation of active compound of the desired concentration and are populated with larvae of the mustard beetle (Phaedon cochleariae) while the leaves are still moist.

Echinochloa [4] = assay: Post-emergence test (Example J); details: greenhouse, 60 g of a.i./ha, after three weeks
Procedure: (§4) To produce a suitable preparation of active compound, 1 part by weight of active compound is mixed with the stated amount of solvent, the stated amount of emulsifier is added and the concentrate is diluted with water to the desired concentration.
(§5) Test plants of a height of 5-15 cm are sprayed with the preparation of active compound such that the particular amounts of active compound desired are applied per unit area. The concentration of the spray liquor is chosen such that the particular amounts of active compound desired are applied in 1000 l of water/ha.
(§6) After three weeks, the degree of damage in the plants is rated in % damage in comparison to the development of the untreated control.
(§7) 0%=no effect (like untreated control)

Lolium [5] = assay: Post-emergence test (Example J); details: greenhouse, 60 g of a.i./ha, after three weeks
Procedure: as §4, §5, §6, §7

sugarbeets [6] = assay: Post-emergence test (Example J); details: greenhouse, 60 g of a.i./ha, after three weeks
Procedure: as §4, §5, §6, §7

Echinochloa [7] = assay: Pre-emergence test (Example K); details: greenhouse, 30 g of a.i./ha, after three weeks
Procedure: as §4
(§8) Seeds of the test plants are sown in normal soil. After about 24 hours, the soil is sprayed with the preparation of active compound such that the particular amounts of active compound desired are applied per unit area. The concentration of the spray liquor is chosen such that the particular amounts of active compound desired are applied in 1000 l of water/ha.
(§9) After three weeks, the degree of damage to the plants is rated in % damage in comparison to the development of the untreated control.
as §7

Lolium [8] = assay: Pre-emergence test (Example K); details: greenhouse, 30 g of a.i./ha, after three weeks
Procedure: as §4, §8, §9, §7

Setaria [9] = assay: Pre-emergence test (Example K); details: greenhouse, 30 g of a.i./ha, after three weeks
Procedure: as §4, §8, §9, §7

sugarbeets [10] = assay: Pre-emergence test (Example K); details: greenhouse, 30 g of a.i./ha, after three weeks
Procedure: as §4, §8, §9, §7

summer barley = assay: Herbicidal post-emergence action, vessel trials with cereals in the greenhouse, use of safeners (Example N); details: without safener
Procedure: (§10) Herbicidal Post-Emergence Action
(§11) Seeds of monocotyledonous and dicotyledonous weed and crop plants are placed into sandy loam in wood fibre pots or in plastic pots, covered with soil and cultivated in a greenhouse, during the vegetation period also outdoors outside of the greenhouse, under good growth conditions. 2-3 weeks after sowing, the test plants are treated at the one- to three-leaf stage. The test compounds, formulated as wettable powders (WP) or emulsifiable concentrates (EC) are, in various dosages with a water application rate of 300 l/ha (converted), with wetting agent (0.2 to 0.3%) added, sprayed onto the plants and the surface of the soil. 3-4 weeks after the treatment of the test plants, the effect of the preparations is rated visually in comparison to untreated controls (herbicidal effect in percent (%): 100% effect=the plants have died, 0% effect=like control plants).
(§12) If it is additionally to be tested as to whether safeners can improve the plant compatibility of test substances in the case of crop plants, the following options are used for applying the safener: • seeds of the crop plants are, before sowing, dressed with the safener substance (the amount of safener is stated in percent, based on the weight of the seed) • before the application of the test substances, the crop plants are sprayed with the safener at a certain application rate per hectare (usually 1 day before the application of the test substances) • the safener is applied together with the test substance as a tank mix (the amount of safener is stated in g/ha or as a ratio, based on the herbicide).
(§13) By comparing the effect of the test substances on crop plants without or with safener treatment, it is possible to assess the effect of the safener substance.
(§14) Vessel Trials with Cereals in the Greenhouse
(§15) Mefenpyr applied 1 day prior to the application of herbicide

summer wheat = assay: as above; details: without safener
Procedure: as §10, §11, §12, §13, §14, §15

Meloidogyne incognita = assay: Meloidogyne test; details: 20 ppm; formation of galls on lettuce roots
Procedure: To produce a suitable preparation of active compound, 1 part by weight of active compound is mixed with the stated amounts of solvent and emulsifier, and the concentrate is diluted with water to the desired concentration.
Vessels are filled with sand, solution of active compound, Meloidogyne incognita egg/larvae suspension and lettuce seeds. The lettuce seeds germinate and the plants develop. On the roots, galls develop.
After the desired period of time, the nematicidal action is determined in % by the formation of galls. 100% means that no galls have been found; 0% means that the number of galls on the treated plants corresponds to that of the untreated control.

Myzus persicae [11] = assay: Myzus test (spray treatment); details: 100 g/ha, Chinese cabbage discs
Procedure: Myzus Test (Spray Treatment)
as §1
Discs of Chinese cabbage (Brassica pekinensis), which are infested by all stages of the green peach aphid (Myzus persicae), are sprayed with a preparation of active compound of the desired concentration.
After the desired period of time, the effect in % is determined. 100% means that all aphids have been killed; 0% means that none of the aphids have been killed.

Avena sativa [12] = assay: Herbicidal post-emergence action (Example M); details: greenhouse, 320 g of a.i./ha, about 3 weeks
Procedure: as §10
(§16) Seeds of monocotyledonous and dicotyledonous weed and crop plants are placed into sandy loam in wood fibre pots, covered with soil and cultivated in a greenhouse under good growth conditions. 2-3 weeks after sowing, the test plants are treated at the one-leaf stage. The test compounds, formulated as wettable powders (WP), are, in various dosages with a water application rate of 600 l/ha (converted), with 0.2% of wetting agent added, sprayed onto the green parts of the plants. After the test plants were kept in the greenhouse under optimum growth conditions for about 3 weeks, the effect of the preparations is rated visually in comparison to untreated controls (herbicidal effect in percent (%): 100% effect=the plants have died, 0% effect=like control plants).

Lolium [13] = assay: Herbicidal post-emergence action (Example M); details: greenhouse, 320 g of a.i./ha, about 3 weeks
Procedure: as §10, §16

Setaria [14] = assay: Herbicidal post-emergence action (Example M); details: greenhouse, 320 g of a.i./ha, about 3 weeks
Procedure: as §10, §16

Avena sativa [15] = assay: Herbicidal pre-emergence action (Example L); details: greenhouse, 320 g of a.i./ha, 3 weeks
Excerpt: (§17) Herbicidal Pre-Emergence Action
(§18) Seeds of monocotyledonous and dicotyledonous weed and crop plants are placed into sandy loam in wood fibre pots and covered with soil. The test compounds, formulated in the form of wettable powders (WP), are then, in various dosages as aqueous suspension with a water application rate of 600 l/ha (converted), with 0.2% of wetting agent added, applied to the surface of the covering soil.
(§19) After the treatment, the pots are placed in a greenhouse and kept under good growth conditions for the test plants. The visual assessment of the emergence damage on the test plants is carried out after a trial period of 3 weeks by comparison with untreated controls (herbicidal effect in percent (%): 100% effect=the plants have died, 0% effect=like control plants).

Lolium [16] = assay: Herbicidal pre-emergence action (Example L); details: greenhouse, 320 g of a.i./ha, 3 weeks
Excerpt: as §17, §18, §19

Setaria [17] = assay: Herbicidal pre-emergence action (Example L); details: greenhouse, 320 g of a.i./ha, 3 weeks
Excerpt: as §17, §18, §19

Sinapis [18] = assay: Herbicidal pre-emergence action (Example L); details: greenhouse, 320 g of a.i./ha, 3 weeks
Excerpt: as §17, §18, §19

Stellaria = assay: Herbicidal pre-emergence action (Example L); details: greenhouse, 320 g of a.i./ha, 3 weeks
Excerpt: as §17, §18, §19

Phaedon cochleariae [19] = assay: Phaedon test (spray treatment); details: 100 g/ha, Chinese cabbage discs
Procedure: Phaedon Test (Spray Treatment) [table] To produce a suitable preparation of active compound, 1 part by weight of active compound is mixed with the stated amounts of solvents and emulsifier, and the concentrate is diluted with emulsifier-containing water to the desired concentration. Discs of Chinese cabbage (Brassica pekinensis) are sprayed with a preparation of active compound of the desired concentration and, after they have dried, populated with larvae of the mustard beetle (Phaedon cochleariae).

Tetranychus urticae [20] = assay: Tetranychus test (OP-resistant/spray treatment); details: 100 g/ha; spray treatment; bean leaf discs
Procedure: Tetranychus Test (OP-Resistant/Spray Treatment)
To produce a suitable preparation of active compound, 1 part by weight of active compound is mixed with the stated amounts of solvents and emulsifier, and the concentrate is diluted with emulsifier-containing water to the desired concentration.
Discs of bean leaves (Phaseolus vulgaris) which are infested by all stages of the greenhouse red spider mite (Tetranychus urticae) are sprayed with a preparation of active compound of the desired concentration.
as §3

Sinapis [21] = assay: Herbicidal post-emergence action (Example M); details: greenhouse, 320 g of a.i./ha, about 3 weeks
Procedure: as §10, §16

Amaranthus = assay: Herbicidal pre-emergence action (Example L); details: greenhouse, 320 g of a.i./ha, 3 weeks
Excerpt: as §17, §18, §19

## CCc1cc(C)cc(Cl)c1C1=C(O)C2(CCC(OC)CC2)NC1=O (single isomer, unassigned) [Example I-a-4]
Myzus persicae [1]; 4 ppm
  Kill rate in % after 6d: 95%
Tetranychus urticae [2]; 100 ppm, bean plants (Table H)
  Kill rate in % after 7d: 99%
Aphis gossypii
  Kill rate in % after 6d: 80%
Phaedon cochleariae [3]
  Kill rate in % after 7d: 100%
Echinochloa [4]
  % damage, Echinochloa: 100%
Lolium [5]
  % damage, Lolium: 100%
Sugarbeets [6]
  % damage, sugarbeets: 0%
Echinochloa [7]
  % damage, Echinochloa: 80%
Lolium [8]
  % damage, Lolium: 100%
Setaria [9]
  % damage, Setaria: 100%
Sugarbeets [10]
  % damage, sugarbeets: 0%
Summer barley; 12.5 g of a.i./ha
  summer barley observed (%): 10%
Summer barley; 25 g of a.i./ha
  summer barley observed (%): 30%
Summer barley; 50 g of a.i./ha
  summer barley observed (%): 97%
Summer wheat; 12.5 g of a.i./ha
  summer wheat observed (%): 50%
Summer wheat; 25 g of a.i./ha
  summer wheat observed (%): 98%

## CCc1cc(C)cc(Br)c1C1=C(O)C2(CCOCC2)NC1=O [Example I-a-1]
Myzus persicae [1]; 100 ppm
  Kill rate in % after 6d: 75%
Meloidogyne incognita
  Effect in % after 14d: 80%
Myzus persicae [11]
  Kill rate in % after 5d: 100%
Avena sativa [12]
  herbicidal effect in percent, Avena sativa: 100%
Lolium [13]
  herbicidal effect in percent, Lolium: 100%
Setaria [14]
  herbicidal effect in percent, Setaria: 80%
Avena sativa [15]
  herbicidal effect in percent, Avena sativa: 70%
Lolium [16]
  herbicidal effect in percent, Lolium: 80%
Setaria [17]
  herbicidal effect in percent, Setaria: 90%
Sinapis [18]
  herbicidal effect in percent, Sinapis: 70%
Stellaria
  herbicidal effect in percent, Stellaria: 100%

## CCc1cc(C)cc(Br)c1C1=C(O)C2(CCC(OC)CC2)NC1=O (single isomer, unassigned) [Example I-a-3]
Tetranychus urticae [2]; 4 ppm, bean plants (Table B)
  Kill rate in % after 7d: 50%
Myzus persicae [11]
  Kill rate in % after 5d: 100%
Phaedon cochleariae [19]
  Kill rate in % after 7d: 100%
Tetranychus urticae [20]
  Kill rate in % after 5d: 90%
Avena sativa [12]
  herbicidal effect in percent, Avena sativa: 100%
Lolium [13]
  herbicidal effect in percent, Lolium: 100%
Setaria [14]
  herbicidal effect in percent, Setaria: 100%
Sinapis [21]
  herbicidal effect in percent, Sinapis: 80%
Amaranthus
  herbicidal effect in percent, Amaranthus: 80%
Lolium [16]
  herbicidal effect in percent, Lolium: 80%
Setaria [17]
  herbicidal effect in percent, Setaria: 100%
Summer barley; 25 g of a.i./ha
  summer barley observed (%): 20%
Summer barley; 50 g of a.i./ha
  summer barley observed (%): 90%
Summer barley; 100 g of a.i./ha
  summer barley observed (%): 95%
Summer wheat; 25 g of a.i./ha
  summer wheat observed (%): 60%
